PubChem BioAssay AID2060903 (Molecular Pharmacology Branch, DTP, NCI, 2025)

Test system: 377384-186-R-J1-PDC complex spheroid viability
Assay: Anticancer human tumor 377384-186-R-J1-PDC patient-derived pancreatic carcinoma cell line growth inhibition [RAS]
Details: for viability, T/C: stronger effect = lower value
Outline: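 Agents were tested in combination matrices in half-log decrements from a top concentration at or near clinical Cmax (10 microM if undetermined). Targets were multi-cell spheroids of tumour lines plus HUVEC and MSC stromal cells.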

[1] = curve of first compound, second compound 0.0316 µM
[2] = curve of first compound, second compound 0.1 µM
[3] = curve of first compound, second compound 0.316 µM
[4] = curve of first compound, second compound 1 µM
[5] = second compound 0.0316 µM, first compound 0.0316 µM
[6] = second compound 0.0316 µM, first compound 0.1 µM
[7] = second compound 0.0316 µM, first compound 0.316 µM
[8] = second compound 0.0316 µM, first compound 1 µM
[9] = second compound 0.0316 µM, first compound 3.16 µM
[10] = second compound 0.0316 µM, first compound 10 µM
[11] = second compound 0.1 µM, first compound 0.0316 µM
[12] = second compound 0.1 µM, first compound 0.1 µM
[13] = second compound 0.1 µM, first compound 0.316 µM
[14] = second compound 0.1 µM, first compound 1 µM
[15] = second compound 0.1 µM, first compound 3.16 µM
[16] = second compound 0.1 µM, first compound 10 µM
[17] = second compound 0.316 µM, first compound 0.0316 µM
[18] = second compound 0.316 µM, first compound 0.1 µM
[19] = second compound 0.316 µM, first compound 0.316 µM
[20] = second compound 0.316 µM, first compound 1 µM
[21] = second compound 0.316 µM, first compound 3.16 µM
[22] = second compound 0.316 µM, first compound 10 µM
[23] = second compound 1 µM, first compound 0.0316 µM
[24] = second compound 1 µM, first compound 0.1 µM
[25] = second compound 1 µM, first compound 0.316 µM
[26] = second compound 1 µM, first compound 1 µM
[27] = second compound 1 µM, first compound 3.16 µM
[28] = second compound 1 µM, first compound 10 µM
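Further: spheroids exposed to compounds for seven days before readout.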

For `C=CC(=O)N1CCN(c2nc(OCC3CCCN3C)nc3c(F)c(-c4nc(N)cc(C)c4C(F)(F)F)c(Cl)cc23)C(C)C1` (centres undefined) + CCn1c(-c2cc(N3CCN(C)CC3)cnc2C(C)OC)c2c3cc(ccc31)-c1csc(n1)CC(NC(=O)C1CC1C)C(=O)N1CCCC(N1)C(=O)OCC(C)(C)C2, the IC50 (curve of first compound, second compound 0.000949 µM) was over 1000 nM, the IC50 (curve of first compound, second compound 0.003 µM) was under 3.16 nM and the IC50 (curve of first compound, second compound 0.00949 µM) was under 3.16 nM. For the same compound, the IC50 (curve of first compound, second compound 0.03 µM) was under 3.16 nM, the IC50 (curve of first compound, second compound 0.0949 µM) was under 3.16 nM and the IC50 (curve of first compound, second compound 0.3 µM) was under 3.16 nM. The viability, T/C (second compound 0.000949 µM, first compound 0.00316 µM) was 57.6%, the viability, T/C (second compound 0.000949 µM, first compound 0.01 µM) was 48.5% and the viability, T/C (second compound 0.000949 µM, first compound 0.0316 µM) was 58%. It also gave a viability, T/C (second compound 0.000949 µM, first compound 0.1 µM) of 62.1%, a viability, T/C (second compound 0.000949 µM, first compound 0.316 µM) of 61.6% and a viability, T/C (second compound 0.000949 µM, first compound 1 µM) of 48%. The viability, T/C (second compound 0.003 µM, first compound 0.00316 µM) was 19.5%, the viability, T/C (second compound 0.003 µM, first compound 0.01 µM) was 19.7% and the viability, T/C (second compound 0.003 µM, first compound 0.0316 µM) was 21.2%. It also gave a viability, T/C (second compound 0.003 µM, first compound 0.1 µM) of 19.3%, a viability, T/C (second compound 0.003 µM, first compound 0.316 µM) of 27.7% and a viability, T/C (second compound 0.003 µM, first compound 1 µM) of 22.1%. The viability, T/C (second compound 0.00949 µM, first compound 0.00316 µM) was 5.16%, the viability, T/C (second compound 0.00949 µM, first compound 0.01 µM) was 6.78% and the viability, T/C (second compound 0.00949 µM, first compound 0.0316 µM) was 4.26%. It also gave a viability, T/C (second compound 0.00949 µM, first compound 0.1 µM) of 6.19%, a viability, T/C (second compound 0.00949 µM, first compound 0.316 µM) of 8.67% and a viability, T/C (second compound 0.00949 µM, first compound 1 µM) of 5.16%. The viability, T/C (second compound 0.03 µM, first compound 0.00316 µM) was 2.65%, the viability, T/C (second compound 0.03 µM, first compound 0.01 µM) was 2.3% and the viability, T/C (second compound 0.03 µM, first compound 0.0316 µM) was 2.75%. For the same compound, the viability, T/C (second compound 0.03 µM, first compound 0.1 µM) was 3.22%, the viability, T/C (second compound 0.03 µM, first compound 0.316 µM) was 2.42% and the viability, T/C (second compound 0.03 µM, first compound 1 µM) was 1.95%. The viability, T/C (second compound 0.0949 µM, first compound 0.00316 µM) was 2.35%, the viability, T/C (second compound 0.0949 µM, first compound 0.01 µM) was 2.29% and the viability, T/C (second compound 0.0949 µM, first compound 0.0316 µM) was 2.53%. It also gave a viability, T/C (second compound 0.0949 µM, first compound 0.1 µM) of 2.6%, a viability, T/C (second compound 0.0949 µM, first compound 0.316 µM) of 2.41% and a viability, T/C (second compound 0.0949 µM, first compound 1 µM) of 1.71%. For the same compound, the viability, T/C (second compound 0.3 µM, first compound 0.00316 µM) was 2.58%, the viability, T/C (second compound 0.3 µM, first compound 0.01 µM) was 2.04% and the viability, T/C (second compound 0.3 µM, first compound 0.0316 µM) was 1.61%. It also gave a viability, T/C (second compound 0.3 µM, first compound 0.1 µM) of 1.52%, a viability, T/C (second compound 0.3 µM, first compound 0.316 µM) of 1.71% and a viability, T/C (second compound 0.3 µM, first compound 1 µM) of 1.54%.
For `Cc1nc(N2CCC3(CC2)COC(C)C3N)c(CO)nc1Sc1ccnc(N)c1Cl` (centres undefined) + C=CC(=O)N1CCN(c2nc(OCC3CCCN3C)nc3c(F)c(-c4nc(N)cc(C)c4C(F)(F)F)c(Cl)cc23)C(C)C1, the IC50 (curve of first compound, second compound 0.00316 µM) was over 10000 nM, the IC50 (curve of first compound, second compound 0.01 µM) was over 10000 nM and the IC50 [1] was over 10000 nM. For the same compound, the IC50 [2] was over 10000 nM, the IC50 [3] was over 10000 nM and the IC50 [4] was over 10000 nM. The viability, T/C (second compound 0.00316 µM, first compound 0.0316 µM) was 94.2%, the viability, T/C (second compound 0.00316 µM, first compound 0.1 µM) was 77% and the viability, T/C (second compound 0.00316 µM, first compound 0.316 µM) was 84%. The viability, T/C (second compound 0.00316 µM, first compound 1 µM) was 80.4%, the viability, T/C (second compound 0.00316 µM, first compound 3.16 µM) was 70% and the viability, T/C (second compound 0.00316 µM, first compound 10 µM) was 67%. The viability, T/C (second compound 0.01 µM, first compound 0.0316 µM) was 90.9%, the viability, T/C (second compound 0.01 µM, first compound 0.1 µM) was 85.9% and the viability, T/C (second compound 0.01 µM, first compound 0.316 µM) was 81%. For the same compound, the viability, T/C (second compound 0.01 µM, first compound 1 µM) was 74.7%, the viability, T/C (second compound 0.01 µM, first compound 3.16 µM) was 79.1% and the viability, T/C (second compound 0.01 µM, first compound 10 µM) was 77.8%. The viability, T/C [5] was 91.1%, the viability, T/C [6] was 80.7% and the viability, T/C [7] was 72.4%. It also gave a viability, T/C [8] of 80.4%, a viability, T/C [9] of 79.2% and a viability, T/C [10] of 78.4%. The viability, T/C [11] was 84.4%, the viability, T/C [12] was 82.7% and the viability, T/C [13] was 70.7%. It also gave a viability, T/C [14] of 76%, a viability, T/C [15] of 80.1% and a viability, T/C [16] of 74.6%. The viability, T/C [17] was 91.8%, the viability, T/C [18] was 87% and the viability, T/C [19] was 76.5%. It also gave a viability, T/C [20] of 79.3%, a viability, T/C [21] of 75.7% and a viability, T/C [22] of 69.8%. For the same compound, the viability, T/C [23] was 84.1%, the viability, T/C [24] was 91.2% and the viability, T/C [25] was 81.7%. It also gave a viability, T/C [26] of 73.6%, a viability, T/C [27] of 78.4% and a viability, T/C [28] of 79.8%.
`CC1(O)CCCC1n1c(=O)c(C(F)F)cc2cnc(NC3CCN(S(C)(=O)=O)CC3)nc21` (centres undefined) + C#Cc1c(F)ccc2cc(O)cc(-c3ncc4c(N5CC6CCC(C5)N6)nc(OCC56CCCN5CC(F)C6)nc4c3F)c12 showed an IC50 [1] of under 31.6 nM, an IC50 [2] of under 31.6 nM and an IC50 [3] of under 31.6 nM. The IC50 [4] was under 31.6 nM, the IC50 (curve of first compound, second compound 3.16 µM) was under 31.6 nM and the IC50 (curve of first compound, second compound 10 µM) was under 31.6 nM. The viability, T/C [5] was 15.5%, the viability, T/C [6] was 12.7% and the viability, T/C [7] was 10%. The viability, T/C [8] was 11.7%, the viability, T/C [9] was 16% and the viability, T/C [10] was 5.41%. It also gave a viability, T/C [11] of 8.93%, a viability, T/C [12] of 6.57% and a viability, T/C [13] of 6.54%. For the same compound, the viability, T/C [14] was 7.97%, the viability, T/C [15] was 9.01% and the viability, T/C [16] was 4.92%. The viability, T/C [17] was 5.04%, the viability, T/C [18] was 3.52% and the viability, T/C [19] was 3.71%. For the same compound, the viability, T/C [20] was 4.22%, the viability, T/C [21] was 6.59% and the viability, T/C [22] was 5.41%. It also gave a viability, T/C [23] of 2.55%, a viability, T/C [24] of 2.39% and a viability, T/C [25] of 2.88%. The viability, T/C [26] was 3.55%, the viability, T/C [27] was 4.3% and the viability, T/C [28] was 5.91%. It also gave a viability, T/C (second compound 3.16 µM, first compound 0.0316 µM) of 2%, a viability, T/C (second compound 3.16 µM, first compound 0.1 µM) of 2.27% and a viability, T/C (second compound 3.16 µM, first compound 0.316 µM) of 3.01%. The viability, T/C (second compound 3.16 µM, first compound 1 µM) was 3.27%, the viability, T/C (second compound 3.16 µM, first compound 3.16 µM) was 3.34% and the viability, T/C (second compound 3.16 µM, first compound 10 µM) was 6.51%. The viability, T/C (second compound 10 µM, first compound 0.0316 µM) was 1.76%, the viability, T/C (second compound 10 µM, first compound 0.1 µM) was 1.46% and the viability, T/C (second compound 10 µM, first compound 0.316 µM) was 1.91%. For the same compound, the viability, T/C (second compound 10 µM, first compound 1 µM) was 2%, the viability, T/C (second compound 10 µM, first compound 3.16 µM) was 1.28% and the viability, T/C (second compound 10 µM, first compound 10 µM) was 2.73%.
For `CC1(O)CCCC1n1c(=O)c(C(F)F)cc2cnc(NC3CCN(S(C)(=O)=O)CC3)nc21` (centres undefined), the viability, T/C (compound 0.0316 µM) was 77.2% [middle of 4 runs], the viability, T/C (compound 0.1 µM) was 50% [middle of 4 runs] and the viability, T/C (compound 0.316 µM) was 21.1% [middle of 4 runs]. The viability, T/C (compound 1 µM) was 25.5% [middle of 4 runs], the viability, T/C (compound 3.16 µM) was 34.8% [middle of 4 runs] and the viability, T/C (compound 10 µM) was 6.6% [middle of 4 runs]. The IC50 (curve of compound) was 100 nM [middle of 4 runs].
With `NC1c2ccccc2OC12CCN(c1cnc3c(N4CCCc5ncccc54)n[nH]c3n1)CC2` (centres undefined) the viability, T/C (compound 0.1 µM) was 83.4% [middle of 4 runs], the viability, T/C (compound 0.316 µM) was 80.6% [middle of 4 runs] and the viability, T/C (compound 1 µM) was 73% [middle of 4 runs]. For the same compound, the viability, T/C (compound 3.16 µM) was 76.8% [middle of 4 runs], the viability, T/C (compound 10 µM) was 70% [middle of 4 runs] and the IC50 (curve of compound) was over 10000 nM.
